# Results from ChEMBL document CHEMBL1201862, “PubChem BioAssay data set” (2004).
# Activity calls are given as the source filed them.
# Experiments:
# Format in all cases: functional
# [1] = target: Peroxisome proliferator-activated receptor gamma (Homo sapiens, UniProt P37231); assay: PPARg partial agonists, dose response, cell-based, luminescence, assay provider (AID 504447)
# [2] = target: T1, Cannabinoid receptor 1 (Homo sapiens, UniProt P21554); assay: SAR analysis of antagonists of the Cannabinoid Receptor 1 using an Image-Based Assay - Set 2. [Related pubchem assays (depositor defined):AID2013, AID2026]
# T1 sequence (P21554 whole entry): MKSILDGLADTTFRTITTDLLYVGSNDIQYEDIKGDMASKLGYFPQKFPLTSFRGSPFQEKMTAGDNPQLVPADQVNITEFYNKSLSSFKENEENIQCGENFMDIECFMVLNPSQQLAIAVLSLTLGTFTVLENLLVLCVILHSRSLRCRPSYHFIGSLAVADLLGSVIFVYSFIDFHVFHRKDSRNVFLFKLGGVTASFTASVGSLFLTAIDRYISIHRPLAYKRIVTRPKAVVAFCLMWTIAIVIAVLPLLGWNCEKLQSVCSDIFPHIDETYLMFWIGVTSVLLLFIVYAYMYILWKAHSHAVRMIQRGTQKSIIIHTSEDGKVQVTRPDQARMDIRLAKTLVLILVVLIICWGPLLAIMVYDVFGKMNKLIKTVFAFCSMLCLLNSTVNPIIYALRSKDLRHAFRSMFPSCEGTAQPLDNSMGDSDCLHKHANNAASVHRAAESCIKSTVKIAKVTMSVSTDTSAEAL
# [3] = target: T2, G-protein coupled receptor 35 (Homo sapiens, UniProt Q9HC97); assay: SAR analysis of Antagonists of the GPR35 Receptor using an Image-Based Assay - Set 3. [Related pubchem assays (depositor defined):AID2013, AID2026]
# T2 sequence (Q9HC97 whole entry): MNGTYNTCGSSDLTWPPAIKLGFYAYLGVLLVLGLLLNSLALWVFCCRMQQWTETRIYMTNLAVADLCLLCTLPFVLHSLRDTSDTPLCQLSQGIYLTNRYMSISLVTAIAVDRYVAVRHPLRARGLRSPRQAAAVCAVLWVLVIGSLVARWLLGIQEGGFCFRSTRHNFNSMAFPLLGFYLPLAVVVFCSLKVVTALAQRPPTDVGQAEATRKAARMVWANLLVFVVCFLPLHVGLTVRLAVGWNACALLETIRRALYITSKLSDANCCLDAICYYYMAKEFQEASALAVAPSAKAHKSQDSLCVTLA
# [4] = target: T3, Cannabinoid receptor 2 (Homo sapiens, UniProt P34972); assay: SAR analysis of agonists of the Cannabinoid Receptor 2 using an Image-Based Assay. [Related pubchem assays (depositor defined):AID2013, AID2026]
# T3 sequence (P34972 whole entry): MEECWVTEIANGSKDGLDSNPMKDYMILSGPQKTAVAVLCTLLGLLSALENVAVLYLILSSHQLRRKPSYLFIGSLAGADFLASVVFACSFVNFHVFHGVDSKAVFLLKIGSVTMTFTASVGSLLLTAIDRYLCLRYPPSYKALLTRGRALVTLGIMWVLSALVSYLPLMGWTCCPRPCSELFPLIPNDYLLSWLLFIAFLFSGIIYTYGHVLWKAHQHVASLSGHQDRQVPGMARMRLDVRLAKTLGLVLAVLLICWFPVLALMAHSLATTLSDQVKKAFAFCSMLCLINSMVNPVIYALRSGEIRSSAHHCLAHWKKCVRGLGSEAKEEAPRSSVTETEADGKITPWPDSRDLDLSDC
# [5] = target: T4, G-protein coupled receptor 55 (Homo sapiens, UniProt Q9Y2T6); assay: GPR55 antagonists blocking LPI-driven arrestin recruitment, primary screen, imaging, U2OS, beta-arrestin-GFP, LPI agonist (AID 2013);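 also: antagonist potency measured as reduced agonist-driven arrestin aggregation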
# T4 sequence (Q9Y2T6 whole entry): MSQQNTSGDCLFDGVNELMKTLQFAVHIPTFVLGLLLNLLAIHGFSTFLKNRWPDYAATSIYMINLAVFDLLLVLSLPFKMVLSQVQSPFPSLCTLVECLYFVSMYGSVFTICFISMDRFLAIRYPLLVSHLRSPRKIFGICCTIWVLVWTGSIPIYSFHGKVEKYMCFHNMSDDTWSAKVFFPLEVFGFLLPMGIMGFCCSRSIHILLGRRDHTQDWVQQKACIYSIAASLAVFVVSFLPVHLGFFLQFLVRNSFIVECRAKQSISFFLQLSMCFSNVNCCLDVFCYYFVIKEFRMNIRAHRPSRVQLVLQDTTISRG
# [6] = target: T1, Cannabinoid receptor 1; assay: SAR analysis of agonists of the Cannabinoid Receptor 1 using an Image-Based Assay - Set 2. [Related pubchem assays (depositor defined):AID2013, AID2026]
# [7] = target: T4, G-protein coupled receptor 55; assay: GPR55 antagonist potency of analogs, SAR follow-up, imaging, U2OS, beta-arrestin-GFP, LPI agonist, set 2 (AID 2820)
# [8] = target: T2, G-protein coupled receptor 35; assay: SAR analysis of Agonists of the GPR35 Receptor using an Image-Based Assay - Set 2. [Related pubchem assays (depositor defined):AID2013, AID2026]
# [9] = target: T5, Short transient receptor potential channel 4 (Mus musculus, UniProt Q9QUQ5); assay: mouse TRPC4 channel inhibitors, dose response, cell-based, HEK293 TRPC4/mu-opioid, Fluo-4 calcium (AID 434942);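 also: potency of inhibitors blocking the TRPC4 calcium response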
# T5 sequence (Q9QUQ5 whole entry): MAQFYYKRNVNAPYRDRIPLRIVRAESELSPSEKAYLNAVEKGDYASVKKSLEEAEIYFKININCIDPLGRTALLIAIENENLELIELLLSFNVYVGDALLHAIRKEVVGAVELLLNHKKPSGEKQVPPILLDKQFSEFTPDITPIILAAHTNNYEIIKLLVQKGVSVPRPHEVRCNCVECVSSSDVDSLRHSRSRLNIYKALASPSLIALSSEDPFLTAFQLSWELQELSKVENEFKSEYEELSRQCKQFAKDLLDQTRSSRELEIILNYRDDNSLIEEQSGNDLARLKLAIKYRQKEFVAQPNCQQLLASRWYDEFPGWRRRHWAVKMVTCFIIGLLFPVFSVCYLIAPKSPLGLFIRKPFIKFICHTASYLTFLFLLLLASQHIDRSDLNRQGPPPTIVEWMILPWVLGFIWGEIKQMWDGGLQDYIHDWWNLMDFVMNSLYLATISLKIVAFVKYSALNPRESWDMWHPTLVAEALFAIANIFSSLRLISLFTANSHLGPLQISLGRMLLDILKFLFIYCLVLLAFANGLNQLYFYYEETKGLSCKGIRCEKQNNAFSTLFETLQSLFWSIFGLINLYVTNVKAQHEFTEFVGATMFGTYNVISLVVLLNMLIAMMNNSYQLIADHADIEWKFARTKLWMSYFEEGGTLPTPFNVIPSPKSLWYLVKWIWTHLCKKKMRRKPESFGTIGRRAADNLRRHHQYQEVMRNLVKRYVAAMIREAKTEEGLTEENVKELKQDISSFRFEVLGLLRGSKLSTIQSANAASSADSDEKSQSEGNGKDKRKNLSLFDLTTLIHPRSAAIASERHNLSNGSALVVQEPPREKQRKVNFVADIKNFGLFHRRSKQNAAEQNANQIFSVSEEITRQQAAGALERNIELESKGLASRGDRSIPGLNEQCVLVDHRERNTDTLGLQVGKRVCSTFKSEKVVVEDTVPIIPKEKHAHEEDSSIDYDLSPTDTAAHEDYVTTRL
# [10] = target: T3, Cannabinoid receptor 2; assay: SAR analysis of antagonists of the Cannabinoid Receptor 2 using an Image-Based Assay. [Related pubchem assays (depositor defined):AID2013, AID2026]
# [11] = target: Sphingosine 1-phosphate receptor 4 (Homo sapiens, UniProt O95977); assay: Late-stage fluorescence dose response cell-based assay to identify agonists of the Sphingosine 1-Phosphate Receptor 4 (S1P4): purchased compounds EC50. [Related pubchem assays (depositor defined):AID1509, AID1523, AID1563, AID1686, AID1701, AID1801]
# Sphingosine 1-phosphate receptor 4, sequence (O95977 whole entry): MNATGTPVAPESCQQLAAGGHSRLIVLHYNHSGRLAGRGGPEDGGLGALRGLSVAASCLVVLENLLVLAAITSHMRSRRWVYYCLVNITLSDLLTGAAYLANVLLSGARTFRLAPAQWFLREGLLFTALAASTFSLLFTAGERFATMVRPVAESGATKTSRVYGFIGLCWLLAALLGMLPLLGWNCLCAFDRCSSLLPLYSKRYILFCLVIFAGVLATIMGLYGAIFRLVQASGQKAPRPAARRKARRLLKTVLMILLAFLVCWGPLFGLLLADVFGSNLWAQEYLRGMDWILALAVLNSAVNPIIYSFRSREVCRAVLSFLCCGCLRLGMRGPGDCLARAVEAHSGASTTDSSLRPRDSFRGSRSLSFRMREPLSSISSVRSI
# [12] = target: T1, Cannabinoid receptor 1; assay: SAR analysis of agonists of the Cannabinoid Receptor 1 using an Image-Based Assay - Set 4. [Related pubchem assays (depositor defined):AID2013, AID2026]
# [13] = target: T3, Cannabinoid receptor 2; assay: SAR analysis of antagonists of the Cannabinoid Receptor 2 using an Image-Based Assay - Set 3. [Related pubchem assays (depositor defined):AID2013, AID2026]
# [14] = target: T2, G-protein coupled receptor 35; assay: SAR analysis of Agonists of the GPR35 Receptor using an Image-Based Assay - Set 4. [Related pubchem assays (depositor defined):AID2013, AID2026]
# [15] = target: T3, Cannabinoid receptor 2; assay: SAR analysis of agonists of the Cannabinoid Receptor 2 using an Image-Based Assay - Set 3. [Related pubchem assays (depositor defined):AID2013, AID2026]
# [16] = target: T1, Cannabinoid receptor 1; assay: SAR analysis of antagonists of the Cannabinoid Receptor 1 using an Image-Based Assay - Set 4. [Related pubchem assays (depositor defined):AID2013, AID2026]
# [17] = target: T2, G-protein coupled receptor 35; assay: SAR analysis of Antagonists of the GPR35 Receptor using an Image-Based Assay - Set 6. [Related pubchem assays (depositor defined):AID2013, AID2026]
# [18] = target: T4, G-protein coupled receptor 55; assay: SAR Analysis of Selective Antagonists of GPR55 using an Image-Based Assay - Set 4. [Related pubchem assays (depositor defined):AID2013, AID2026]
# Peroxisome proliferator-activated receptor gamma, sequence (P37231 whole entry): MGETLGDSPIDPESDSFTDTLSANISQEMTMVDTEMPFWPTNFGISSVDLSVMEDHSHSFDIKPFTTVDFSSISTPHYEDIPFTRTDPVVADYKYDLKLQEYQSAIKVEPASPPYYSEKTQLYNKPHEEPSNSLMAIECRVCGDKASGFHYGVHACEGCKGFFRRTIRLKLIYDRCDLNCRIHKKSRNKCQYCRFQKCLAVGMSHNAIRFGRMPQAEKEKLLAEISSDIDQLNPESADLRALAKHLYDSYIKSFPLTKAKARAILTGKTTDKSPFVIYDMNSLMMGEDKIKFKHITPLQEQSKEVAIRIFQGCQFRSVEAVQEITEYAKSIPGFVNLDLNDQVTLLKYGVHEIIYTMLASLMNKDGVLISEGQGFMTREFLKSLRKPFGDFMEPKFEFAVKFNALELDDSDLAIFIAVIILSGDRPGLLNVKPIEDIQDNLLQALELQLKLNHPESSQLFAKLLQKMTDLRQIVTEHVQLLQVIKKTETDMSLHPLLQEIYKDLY
compound,measurement,setting,value
O=C(CSc1nc(=O)n(CCN2CCOCC2)c2c1CCCC2)Nc1cccc([N+](=O)[O-])c1,EC50,[1],0.631 µM (active)
Cc1[nH]nc(-c2ccc(O)cc2O)c1-c1ccc(Cl)cc1,IC50,[2],> 32 µM (inactive)
same,IC50,[3],> 32 µM (inactive)
same,EC50,[4],> 32 µM (inactive)
same,IC50,[5],3.44 µM (active)
same,EC50,[6],> 32 µM (inactive)
same,IC50,[7],2.05 µM (active)
same,EC50,[8],> 32 µM (inactive)
same,EC50,[9],5.31 µM (active)
same,IC50,[10],> 32 µM (inactive)
CC(=O)c1ccccc1NC(=O)C(C)OC(=O)c1c(C)nn(Cc2ccccc2)c1Cl (stereo not drawn),EC50,[11],> 50 µM (inactive)
O=C(Cc1ccccc1F)N1CCC(n2nc(-c3ccccc3)oc2=O)CC1,EC50,[12],> 32 µM (inactive)
same,IC50,[13],> 32 µM (inactive)
same,EC50,[14],> 32 µM (inactive)
same,EC50,[15],> 32 µM (inactive)
same,IC50,[16],17.9 µM (inactive)
same,IC50,[17],> 32 µM (inactive)
same,IC50,[18],> 32 µM (inactive)
